Like-named read-outs stand apart in the source and are kept apart here. Each block holds one compound with its values, some of them ahead of it.
Test: Pharmacokinetic evaluation in rats
Format: in vivo
Conditions: male, Sprague-Dawley, rat, plasma, po, 3 mg/kg, 3 mg/kg by gavage
Protocol: 12 male Sprague-Dawley rats, 7-8 weeks old, of approximately 200 g body weight, were divided into three groups, four in each group.
Rats were feed with standard feed, and were given water, and were started to fast 16 hours before the test. The drug was dissolved in PEG400 and dimethylsulfoxide. Orbital blood collection was conducted, and the blood collection time is 0.25 hour, 0.5 hour, 1 hour, 2 hour, 4 hour, 6 hour, 8 hour, 12 hour, 24 hour, 36 hour and 48 hour after administration.
After inhalation of ether, the rats were shortly anesthesiaed; 300 μL of blood were collected from orbit into a test tube. There were 30 μL of 1% heparin saline solutions in the test tube. Before use, test tubes were dried overnight at 60° C. After the blood sample was collected in the subsequent time point, rats were anesthetized with ether and sacrificed.
After blood sampling, the tube was gently inverted at least 5 times immediately to ensure adequate mixing, and was placed on ice. Blood samples were 5000 rpm centrifuged at 4° C. for 5 minutes to separate the plasma and red blood cells. 100 μL of plasma was pipetted into a clean plastic centrifuge tube, and the name of compounds and the time point were indicated. Plasma was stored in −80° C. before use for the analysis. The concentration of the compound of the invention in plasma was determined with LC-MS/MS. The pharmacokinetic parameters were calculated based on the blood drug concentration of each animal at different time points.

[1] = group G3, Mean of 4 rats, read-out: AUCINF_obs
[2] = group G3, rat 9, read-out: AUCINF_obs
[3] = group G3, rat 10, read-out: AUCINF_obs
[4] = group G3, rat 11, read-out: AUCINF_obs
[5] = group G3, rat 12, read-out: AUCINF_obs
[6] = group G2, Mean of 4 rats, read-out: AUCINF_obs
[7] = group G2, rat 5, read-out: AUCINF_obs
[8] = group G2, rat 6, read-out: AUCINF_obs
[9] = group G2, rat 7, read-out: AUCINF_obs
[10] = group G2, rat 8, read-out: AUCINF_obs
[11] = group G1, Mean of 4 rats, read-out: AUCINF_obs
[12] = group G1, rat 1, read-out: AUCINF_obs
[13] = group G1, rat 2, read-out: AUCINF_obs
[14] = group G1, rat 3, read-out: AUCINF_obs
[15] = group G1, rat 4, read-out: AUCINF_obs

SMILES: [2H]C1([2H])OC([2H])([2H])C([2H])([2H])N(c2ccc(Nc3nccc(-c4ccc(C(=O)NCC#N)cc4)n3)cc2)C1([2H])[2H] [example 1, N-(cyanomethyl)-4-(2-(4-(d8-morpholino)phenylamino)pyrimidine-4-yl)benzamide]
AUC(0-t) (group G3 (Table 3), mean±SD): 3960 ± 1480 ng·h/mL
Cmax (group G3 (Table 3), mean±SD): 653 ± 275 ng/mL
AUC(0-t) (group G3, Mean of 4 rats): 3960 ng·h/mL
Cmax (group G3, Mean of 4 rats): 653 ng/mL
Tmax (group G3, Mean of 4 rats): 3.5 h
AUC(0-inf) [1]: 4060 ng·h/mL
AUC(0-t) (group G3, rat 9): 6170 ng·h/mL
Cmax (group G3, rat 9): 1060 ng/mL
Tmax (group G3, rat 9): 4 h
AUC(0-inf) [2]: 6300 ng·h/mL
AUC(0-t) (group G3, rat 10): 3250 ng·h/mL
Cmax (group G3, rat 10): 596 ng/mL
Tmax (group G3, rat 10): 4 h
AUC(0-inf) [3]: 3370 ng·h/mL
AUC(0-t) (group G3, rat 11): 3160 ng·h/mL
Cmax (group G3, rat 11): 476 ng/mL
Tmax (group G3, rat 11): 2 h
AUC(0-inf) [4]: 3250 ng·h/mL
AUC(0-t) (group G3, rat 12): 3240 ng·h/mL
Cmax (group G3, rat 12): 483 ng/mL
Tmax (group G3, rat 12): 4 h
AUC(0-inf) [5]: 3320 ng·h/mL

SMILES: [2H]C1([2H])COCC([2H])([2H])N1c1ccc(Nc2nccc(-c3ccc(C(=O)NCC#N)cc3)n2)cc1 [example 5, N-(cyanomethyl)-4-(2-(4-(2′,2′,6′,6′-d4-morpholino)phenylamino)pyrimidin-4-yl)benzamide]
AUC(0-t) (group G2 (Table 2), mean±SD): 5390 ± 1230 ng·h/mL
Cmax (group G2 (Table 2), mean±SD): 972 ± 307 ng/mL
AUC(0-t) (group G2, Mean of 4 rats): 5390 ng·h/mL
Cmax (group G2, Mean of 4 rats): 972 ng/mL
Tmax (group G2, Mean of 4 rats): 3.5 h
AUC(0-inf) [6]: 5440 ng·h/mL
AUC(0-t) (group G2, rat 5): 6820 ng·h/mL
Cmax (group G2, rat 5): 1410 ng/mL
Tmax (group G2, rat 5): 2 h
AUC(0-inf) [7]: 6850 ng·h/mL
AUC(0-t) (group G2, rat 6): 5460 ng·h/mL
Cmax (group G2, rat 6): 922 ng/mL
Tmax (group G2, rat 6): 4 h
AUC(0-inf) [8]: 5490 ng·h/mL
AUC(0-t) (group G2, rat 7): 5470 ng·h/mL
Cmax (group G2, rat 7): 875 ng/mL
Tmax (group G2, rat 7): 4 h
AUC(0-inf) [9]: 5520 ng·h/mL
AUC(0-t) (group G2, rat 8): 3810 ng·h/mL
Cmax (group G2, rat 8): 686 ng/mL
Tmax (group G2, rat 8): 4 h
AUC(0-inf) [10]: 3900 ng·h/mL

SMILES: N#CCNC(=O)c1ccc(-c2ccnc(Nc3ccc(N4CCOCC4)cc3)n2)cc1 [example 9, N-(cyanomethyl)-4-(2-(4-morpholinophenylamino)pyrimidin-4-yl)benzamide, reference compound]
AUC(0-t) (group G1 (Table 1), mean±SD): 1620 ± 932 ng·h/mL
Cmax (group G1 (Table 1), mean±SD): 245 ± 140 ng/mL
AUC(0-t) (group G1, Mean of 4 rats): 1620 ng·h/mL
Cmax (group G1, Mean of 4 rats): 245 ng/mL
Tmax (group G1, Mean of 4 rats): 2.56 h
AUC(0-inf) [11]: 1650 ng·h/mL
AUC(0-t) (group G1, rat 1): 2290 ng·h/mL
Cmax (group G1, rat 1): 368 ng/mL
Tmax (group G1, rat 1): 0.25 h
AUC(0-inf) [12]: 2300 ng·h/mL
AUC(0-t) (group G1, rat 2): 443 ng·h/mL
Cmax (group G1, rat 2): 79.4 ng/mL
Tmax (group G1, rat 2): 4 h
AUC(0-inf) [13]: 480 ng·h/mL
AUC(0-t) (group G1, rat 3): 2440 ng·h/mL
Cmax (group G1, rat 3): 354 ng/mL
Tmax (group G1, rat 3): 4 h
AUC(0-inf) [14]: 2510 ng·h/mL
AUC(0-t) (group G1, rat 4): 1320 ng·h/mL
Cmax (group G1, rat 4): 180 ng/mL
Tmax (group G1, rat 4): 2 h
AUC(0-inf) [15]: 1330 ng·h/mL
AUC(0-t) (group G2 (Table 2), mean±SD): 3210 ± 744 ng·h/mL
Cmax (group G2 (Table 2), mean±SD): 589 ± 190 ng/mL
AUC(0-t) (group G2, Mean of 4 rats): 3210 ng·h/mL
Cmax (group G2, Mean of 4 rats): 589 ng/mL
Tmax (group G2, Mean of 4 rats): 3.5 h
AUC(0-inf) [6]: 3240 ng·h/mL
AUC(0-t) (group G2, rat 5): 4080 ng·h/mL
Cmax (group G2, rat 5): 858 ng/mL
Tmax (group G2, rat 5): 2 h
AUC(0-inf) [7]: 4110 ng·h/mL
AUC(0-t) (group G2, rat 6): 3320 ng·h/mL
Cmax (group G2, rat 6): 567 ng/mL
Tmax (group G2, rat 6): 4 h
AUC(0-inf) [8]: 3340 ng·h/mL
AUC(0-t) (group G2, rat 7): 3180 ng·h/mL
Cmax (group G2, rat 7): 514 ng/mL
Tmax (group G2, rat 7): 4 h
AUC(0-inf) [9]: 3210 ng·h/mL
AUC(0-t) (group G2, rat 8): 2270 ng·h/mL
Cmax (group G2, rat 8): 415 ng/mL
Tmax (group G2, rat 8): 4 h
AUC(0-inf) [10]: 2300 ng·h/mL
AUC(0-t) (group G3 (Table 3), mean±SD): 2190 ± 814 ng·h/mL
Cmax (group G3 (Table 3), mean±SD): 365 ± 146 ng/mL
AUC(0-t) (group G3, Mean of 4 rats): 2190 ng·h/mL
Cmax (group G3, Mean of 4 rats): 365 ng/mL
Tmax (group G3, Mean of 4 rats): 3.5 h
AUC(0-inf) [1]: 2240 ng·h/mL
AUC(0-t) (group G3, rat 9): 3420 ng·h/mL
Cmax (group G3, rat 9): 579 ng/mL
Tmax (group G3, rat 9): 4 h
AUC(0-inf) [2]: 3480 ng·h/mL
AUC(0-t) (group G3, rat 10): 1800 ng·h/mL
Cmax (group G3, rat 10): 336 ng/mL
Tmax (group G3, rat 10): 4 h
AUC(0-inf) [3]: 1850 ng·h/mL
AUC(0-t) (group G3, rat 11): 1750 ng·h/mL
Cmax (group G3, rat 11): 276 ng/mL
Tmax (group G3, rat 11): 2 h
AUC(0-inf) [4]: 1800 ng·h/mL
AUC(0-t) (group G3, rat 12): 1810 ng·h/mL
Cmax (group G3, rat 12): 270 ng/mL
Tmax (group G3, rat 12): 4 h
AUC(0-inf) [5]: 1840 ng·h/mL

Next, values leading:

AUC(0-t) (group G3 (Table 3), mean±SD): 2720 ± 922 ng·h/mL
Cmax (group G3 (Table 3), mean±SD): 447 ± 170 ng/mL
AUC(0-t) (group G3, Mean of 4 rats): 2720 ng·h/mL
Cmax (group G3, Mean of 4 rats): 447 ng/mL
Tmax (group G3, Mean of 4 rats): 3.5 h
AUC(0-inf) [1]: 2790 ng·h/mL
AUC(0-t) (group G3, rat 9): 4100 ng·h/mL
Cmax (group G3, rat 9): 694 ng/mL
Tmax (group G3, rat 9): 4 h
AUC(0-inf) [2]: 4180 ng·h/mL
AUC(0-t) (group G3, rat 10): 2300 ng·h/mL
Cmax (group G3, rat 10): 419 ng/mL
Tmax (group G3, rat 10): 4 h
AUC(0-inf) [3]: 2350 ng·h/mL
AUC(0-t) (group G3, rat 11): 2190 ng·h/mL
Cmax (group G3, rat 11): 329 ng/mL
Tmax (group G3, rat 11): 2 h
AUC(0-inf) [4]: 2260 ng·h/mL
AUC(0-t) (group G3, rat 12): 2290 ng·h/mL
Cmax (group G3, rat 12): 344 ng/mL
Tmax (group G3, rat 12): 4 h
AUC(0-inf) [5]: 2350 ng·h/mL
SMILES: [2H]C([2H])(C#N)NC(=O)c1ccc(-c2ccnc(Nc3ccc(N4C([2H])([2H])C([2H])([2H])OC([2H])([2H])C4([2H])[2H])cc3)n2)cc1 [example 3, N-(cyano(d2-methyl))-4-(2-(4-(d8-morpholino)phenylamino)pyrimidin-4-yl)benzamide]

AUC(0-t) (group G1 (Table 1), mean±SD): 1900 ± 1100 ng·h/mL
Cmax (group G1 (Table 1), mean±SD): 282 ± 158 ng/mL
AUC(0-t) (group G1, Mean of 4 rats): 1900 ng·h/mL
Cmax (group G1, Mean of 4 rats): 282 ng/mL
Tmax (group G1, Mean of 4 rats): 2.56 h
AUC(0-inf) [11]: 1940 ng·h/mL
AUC(0-t) (group G1, rat 1): 2730 ng·h/mL
Cmax (group G1, rat 1): 423 ng/mL
Tmax (group G1, rat 1): 0.25 h
AUC(0-inf) [12]: 2740 ng·h/mL
AUC(0-t) (group G1, rat 2): 514 ng·h/mL
Cmax (group G1, rat 2): 94.6 ng/mL
Tmax (group G1, rat 2): 4 h
AUC(0-inf) [13]: 561 ng·h/mL
AUC(0-t) (group G1, rat 3): 2840 ng·h/mL
Cmax (group G1, rat 3): 403 ng/mL
Tmax (group G1, rat 3): 4 h
AUC(0-inf) [14]: 2920 ng·h/mL
AUC(0-t) (group G1, rat 4): 1520 ng·h/mL
Cmax (group G1, rat 4): 207 ng/mL
Tmax (group G1, rat 4): 2 h
AUC(0-inf) [15]: 1530 ng·h/mL
SMILES: [2H]C([2H])(C#N)NC(=O)c1ccc(-c2ccnc(Nc3ccc(N4CC([2H])([2H])OC([2H])([2H])C4)cc3)n2)cc1 [example 6]

AUC(0-t) (group G1 (Table 1), mean±SD): 2090 ± 1220 ng·h/mL
Cmax (group G1 (Table 1), mean±SD): 309 ± 175 ng/mL
AUC(0-t) (group G1, Mean of 4 rats): 2090 ng·h/mL
Cmax (group G1, Mean of 4 rats): 309 ng/mL
Tmax (group G1, Mean of 4 rats): 2.56 h
AUC(0-inf) [11]: 2120 ng·h/mL
AUC(0-t) (group G1, rat 1): 3090 ng·h/mL
Cmax (group G1, rat 1): 469 ng/mL
Tmax (group G1, rat 1): 0.25 h
AUC(0-inf) [12]: 3100 ng·h/mL
AUC(0-t) (group G1, rat 2): 574 ng·h/mL
Cmax (group G1, rat 2): 101 ng/mL
Tmax (group G1, rat 2): 4 h
AUC(0-inf) [13]: 616 ng·h/mL
AUC(0-t) (group G1, rat 3): 3050 ng·h/mL
Cmax (group G1, rat 3): 438 ng/mL
Tmax (group G1, rat 3): 4 h
AUC(0-inf) [14]: 3130 ng·h/mL
AUC(0-t) (group G1, rat 4): 1630 ng·h/mL
Cmax (group G1, rat 4): 227 ng/mL
Tmax (group G1, rat 4): 2 h
AUC(0-inf) [15]: 1640 ng·h/mL
SMILES: [2H]C([2H])(C#N)NC(=O)c1ccc(-c2ccnc(Nc3ccc(N4CCOCC4)cc3)n2)cc1 [example 8, N-(cyano(d2-methyl))-4-(2-(4-morpholinophenylamino)pyrimidin-4-yl)benzamide]

From US9604935B2, “Deuterated phenyl amino pyrimidine compound and pharmaceutical composition containing the same” (Suzhou Zelgen Biopharmaceuticals Co., Ltd., priority 2013, dated 2017)
